Measured values as given in ChEMBL document CHEMBL1130485, “Novel low molecular renin inhibitors which show good oral blood pressure lowering effects in marmosets” (Bioorg Med Chem Lett, 1997).
Each block holds one compound with its values, some of them ahead of it.

Columns and labels:
[1] = target: T1, Angiotensin-converting enzyme (Homo sapiens, UniProt P12821); test: Inhibitory activity against ACE human, expressed as IC50
[2] = target: T2, Cathepsin D (Bos taurus, UniProt P80209); test: Inhibitory activity against cathepsin D (bovine), expressed as IC50
T2 sequence (P80209 whole entry): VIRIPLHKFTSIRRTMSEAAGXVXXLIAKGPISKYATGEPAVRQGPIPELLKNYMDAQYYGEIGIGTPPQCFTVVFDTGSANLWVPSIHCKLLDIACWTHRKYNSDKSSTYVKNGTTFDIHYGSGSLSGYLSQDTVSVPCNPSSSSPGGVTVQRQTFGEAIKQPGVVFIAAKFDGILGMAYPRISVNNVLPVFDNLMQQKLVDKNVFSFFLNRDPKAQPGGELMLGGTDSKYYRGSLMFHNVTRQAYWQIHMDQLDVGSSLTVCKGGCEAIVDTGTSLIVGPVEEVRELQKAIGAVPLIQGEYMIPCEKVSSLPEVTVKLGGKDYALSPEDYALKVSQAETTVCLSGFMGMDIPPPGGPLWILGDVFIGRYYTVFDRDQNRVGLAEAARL

[3] = target: Pepsin A (Sus scrofa, UniProt P00791); test: In vitro inhibitory effect was evaluated against pepsin, Expressed as IC50
[4] = In vivo blood pressure lowering effects in salt depleted conscious marmosets was determined when a dose of 10mg/Kg, po. at 1 hr; assay type: functional, Callitrichinae
[5] = In vivo blood pressure lowering effects in salt depleted conscious marmosets was determined when a dose of 10mg/Kg, po. at 3h; assay type: functional, Callitrichinae
[6] = In vivo blood pressure lowering effects in salt depleted conscious marmosets was determined when a dose of 10mg/Kg, po. at 0.5 hr; assay type: functional, Callitrichinae
[7] = target: T3, Renin (Homo sapiens, UniProt P00797); test: In vitro renin inhibitory effect was evaluated for plasma renin activity (PRA) of human plasma, Expressed as IC50; assay type: cell-free
T3 sequence (P00797 whole entry): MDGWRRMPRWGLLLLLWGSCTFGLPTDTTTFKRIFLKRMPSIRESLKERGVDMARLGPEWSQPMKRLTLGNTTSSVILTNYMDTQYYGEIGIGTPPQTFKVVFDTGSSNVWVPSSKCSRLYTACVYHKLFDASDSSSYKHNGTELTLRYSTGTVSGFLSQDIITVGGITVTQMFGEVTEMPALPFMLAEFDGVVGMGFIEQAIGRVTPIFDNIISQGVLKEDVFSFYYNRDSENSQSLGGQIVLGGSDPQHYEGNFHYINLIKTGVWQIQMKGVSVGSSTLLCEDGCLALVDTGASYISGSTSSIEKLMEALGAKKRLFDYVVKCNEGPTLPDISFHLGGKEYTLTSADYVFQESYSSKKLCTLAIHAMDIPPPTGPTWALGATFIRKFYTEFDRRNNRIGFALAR

[8] = target: T4, Renin (Rattus norvegicus) (UniProt P08424); test: In vitro percent Inhibitory activity against rat plasma renin at the concentration of 100000 nM; assay type: cell-free
T4 sequence (whole entry): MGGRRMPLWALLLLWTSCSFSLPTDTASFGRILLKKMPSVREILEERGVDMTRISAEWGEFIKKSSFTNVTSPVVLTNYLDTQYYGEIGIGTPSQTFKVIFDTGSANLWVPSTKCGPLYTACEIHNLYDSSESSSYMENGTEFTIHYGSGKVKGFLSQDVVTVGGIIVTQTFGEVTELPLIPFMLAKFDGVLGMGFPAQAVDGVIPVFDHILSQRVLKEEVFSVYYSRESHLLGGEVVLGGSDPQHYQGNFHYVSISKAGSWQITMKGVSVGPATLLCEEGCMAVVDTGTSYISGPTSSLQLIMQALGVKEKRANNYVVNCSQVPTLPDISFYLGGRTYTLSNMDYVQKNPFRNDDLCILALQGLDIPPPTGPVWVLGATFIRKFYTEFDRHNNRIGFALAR

[9] = target: T1, Angiotensin-converting enzyme; test: Percent Inhibitory activity against angiotensin-converting enzyme (ACE) human at the concentration of 100000 nM
[10] = target: Pepsin A (Sus scrofa) (UniProt P00791); test: Percent Inhibitory activity against pepsin at the concentration of 100000 nM
Chain of Pepsin A (Sus scrofa) (P00791 60-385 limits assumed): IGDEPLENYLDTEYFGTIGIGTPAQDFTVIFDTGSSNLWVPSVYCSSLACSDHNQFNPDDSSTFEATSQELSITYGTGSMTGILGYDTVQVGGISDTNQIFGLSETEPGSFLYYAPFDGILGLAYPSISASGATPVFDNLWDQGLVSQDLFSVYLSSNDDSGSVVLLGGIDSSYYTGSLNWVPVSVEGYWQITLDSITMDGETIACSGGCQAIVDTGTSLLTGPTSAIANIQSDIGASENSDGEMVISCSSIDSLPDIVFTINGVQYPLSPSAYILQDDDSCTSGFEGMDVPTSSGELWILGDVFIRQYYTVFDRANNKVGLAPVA

T1 sequence (P12821 whole entry): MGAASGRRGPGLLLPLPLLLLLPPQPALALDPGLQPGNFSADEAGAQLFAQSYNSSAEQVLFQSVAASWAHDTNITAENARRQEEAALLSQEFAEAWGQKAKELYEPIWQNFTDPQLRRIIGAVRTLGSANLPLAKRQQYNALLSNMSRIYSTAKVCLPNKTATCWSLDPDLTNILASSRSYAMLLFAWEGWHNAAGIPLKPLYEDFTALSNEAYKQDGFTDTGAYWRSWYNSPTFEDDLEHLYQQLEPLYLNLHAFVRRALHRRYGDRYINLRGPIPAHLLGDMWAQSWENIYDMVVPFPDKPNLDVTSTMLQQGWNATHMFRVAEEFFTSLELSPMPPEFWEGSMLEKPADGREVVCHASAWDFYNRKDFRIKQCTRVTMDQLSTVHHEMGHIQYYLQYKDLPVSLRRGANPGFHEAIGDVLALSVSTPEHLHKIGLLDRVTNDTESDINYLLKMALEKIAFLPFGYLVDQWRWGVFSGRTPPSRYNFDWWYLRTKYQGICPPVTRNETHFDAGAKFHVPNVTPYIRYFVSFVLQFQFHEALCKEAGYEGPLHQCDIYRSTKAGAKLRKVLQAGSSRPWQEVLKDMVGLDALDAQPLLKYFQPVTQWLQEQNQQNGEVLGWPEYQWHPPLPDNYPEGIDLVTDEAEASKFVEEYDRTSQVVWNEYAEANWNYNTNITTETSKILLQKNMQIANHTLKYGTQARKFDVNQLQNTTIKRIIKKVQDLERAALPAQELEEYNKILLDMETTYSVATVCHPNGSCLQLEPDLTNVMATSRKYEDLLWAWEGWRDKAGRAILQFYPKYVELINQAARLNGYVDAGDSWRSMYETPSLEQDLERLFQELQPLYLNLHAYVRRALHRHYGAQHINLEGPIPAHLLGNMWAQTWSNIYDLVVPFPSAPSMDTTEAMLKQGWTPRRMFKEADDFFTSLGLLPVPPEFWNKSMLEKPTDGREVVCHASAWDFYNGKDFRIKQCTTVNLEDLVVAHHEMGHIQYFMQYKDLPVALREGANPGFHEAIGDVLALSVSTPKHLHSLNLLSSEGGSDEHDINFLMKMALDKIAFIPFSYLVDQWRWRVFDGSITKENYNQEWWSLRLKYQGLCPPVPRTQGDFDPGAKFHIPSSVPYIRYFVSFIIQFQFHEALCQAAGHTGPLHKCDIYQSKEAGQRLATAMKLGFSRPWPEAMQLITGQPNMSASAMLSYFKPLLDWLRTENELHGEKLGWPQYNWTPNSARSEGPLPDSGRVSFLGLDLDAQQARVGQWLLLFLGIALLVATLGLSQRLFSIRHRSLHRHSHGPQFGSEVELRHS
Chain of Pepsin A (P00791 whole entry): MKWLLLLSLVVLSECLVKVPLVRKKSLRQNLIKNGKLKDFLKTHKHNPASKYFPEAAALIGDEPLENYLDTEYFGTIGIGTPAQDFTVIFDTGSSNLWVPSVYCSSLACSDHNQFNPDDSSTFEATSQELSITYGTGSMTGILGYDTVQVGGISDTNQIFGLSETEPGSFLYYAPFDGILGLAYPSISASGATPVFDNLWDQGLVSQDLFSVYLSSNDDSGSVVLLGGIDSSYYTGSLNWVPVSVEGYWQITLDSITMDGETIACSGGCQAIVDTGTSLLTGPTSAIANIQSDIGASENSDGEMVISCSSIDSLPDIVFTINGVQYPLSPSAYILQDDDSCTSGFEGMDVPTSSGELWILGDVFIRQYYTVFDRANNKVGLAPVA

Structure (SMILES): CC(C)[C@@H](O)C[C@H](O)[C@H](CC1CCCCC1)NC(=O)[C@H](Cc1cnc[nH]1)NC(=O)c1cc2ccccc2[nH]1
- IC50 [1]: > 100 µM
- IC50 [2]: > 100 µM
- IC50 [3]: > 100 µM

Structure (SMILES): CC(C)[C@@H](O)C[C@H](O)[C@H](CC1CCCCC1)NC(=O)[C@H](Cc1c[nH]cn1)NC(=O)c1cc2ccccc2c(O)n1
- Delta SBP [4]: 1 mmHg
- Delta SBP [5]: 2 mmHg
- Delta SBP [6]: -5 mmHg
- IC50 [7]: 0.048 µM

Structure (SMILES): CC(C)[C@@H](O)C[C@H](O)[C@H](CC1CCCCC1)NC(=O)[C@H](Cc1cnc[nH]1)NC(=O)c1cc2cc(O)ccc2[nH]1
- IC50 [7]: 0.6 µM

Structure (SMILES): CC(C)[C@@H](O)C[C@H](O)[C@H](CC1CCCCC1)NC(=O)[C@H](Cc1c[nH]cn1)NC(=O)c1cc2ccccc2[nH]1
- inhibition [8]: 41.1%
- inhibition [9]: 6%
- Delta SBP [4]: -15 mmHg
- inhibition [10]: 5.6%
- Delta SBP [5]: -13 mmHg
- Delta SBP [6]: -12 mmHg

Structure (SMILES): CC(C)[C@@H](O)C[C@H](O)[C@H](CC1CCCCC1)NC(=O)[C@H](Cc1c[nH]cn1)NC(=O)c1nc2ccccc2[nH]1
- Delta SBP [4]: -13 mmHg
- Delta SBP [5]: -7 mmHg
- Delta SBP [6]: -9 mmHg
- IC50 [7]: 0.013 µM

Structure (SMILES): CC(C)[C@@H](O)C[C@H](O)[C@H](CC1CCCCC1)NC(=O)[C@H](Cc1c[nH]cn1)NC(=O)c1cc2cc(F)ccc2[nH]1
- Delta SBP [4]: -21 mmHg
- Delta SBP [5]: -12 mmHg
- Delta SBP [6]: -18 mmHg
- IC50 [7]: 0.046 µM

Structure (SMILES): CC(C)[C@@H](O)C[C@H](O)[C@H](CC1CCCCC1)NC(=O)[C@H](Cc1cnc[nH]1)NC(=O)C1Cc2ccccc2N1 (stereo in doubt)
- IC50 [7]: 4.4 µM

Structure (SMILES): CC(C)[C@@H](O)C[C@H](O)[C@H](CC1CCCCC1)NC(=O)[C@H](Cc1c[nH]cn1)NC(=O)c1cc2cc(Cl)ccc2[nH]1
- IC50 [7]: 0.26 µM

Structure (SMILES): CC(C)[C@@H](O)C[C@H](O)[C@H](CC1CCCCC1)NC(=O)[C@H](Cc1c[nH]cn1)NC(=O)c1cc2ccccc2cn1
- IC50 [7]: 0.79 µM

Structure (SMILES): CC(C)[C@@H](O)C[C@H](O)[C@H](CC1CCCCC1)NC(=O)[C@H](Cc1cnc[nH]1)N(C)C(=O)[C@H](Cc1ccccc1)NC(=O)N1CCC(O)CC1
- IC50 [7]: 0.00068 µM

Structure (SMILES): CC(C)[C@@H](O)C[C@H](O)[C@H](CC1CCCCC1)NC(=O)[C@H](Cc1cnc[nH]1)NC(=O)c1cc2ccccc2s1
- IC50 [7]: 8.2 µM

Structure (SMILES): CC(C)[C@@H](O)C[C@H](O)[C@H](CC1CCCCC1)NC(=O)[C@H](Cc1cnc[nH]1)NC(=O)[C@@H]1Cc2ccccc2CN1
- IC50 [7]: 0.42 µM

The next lines start with the values.

- IC50 [7]: 0.34 µM
Structure (SMILES): CC(=O)n1c(C(=O)N[C@@H](Cc2cnc[nH]2)C(=O)N[C@@H](CC2CCCCC2)[C@@H](O)C[C@H](O)C(C)C)cc2ccccc21

- IC50 [7]: 0.8 µM
Structure (SMILES): CC(C)[C@@H](O)C[C@H](O)[C@H](CC1CCCCC1)NC(=O)[C@H](Cc1cnc[nH]1)NC(=O)c1cc2cccnc2[nH]1

- IC50 [7]: 0.14 µM
Structure (SMILES): CC(C)[C@@H](O)C[C@H](O)[C@H](CC1CCCCC1)NC(=O)[C@H](Cc1c[nH]cn1)NC(=O)c1cc2ccccc2o1

- IC50 [7]: 0.88 µM
Structure (SMILES): CC(C)[C@@H](O)C[C@H](O)[C@H](CC1CCCCC1)NC(=O)[C@H](Cc1cnc[nH]1)NC(=O)C1Cc2ccccc2N1 (stereo in doubt; 4)

- IC50 [7]: 3 µM
Structure (SMILES): CC(C)[C@@H](O)C[C@H](O)[C@H](CC1CCCCC1)NC(=O)[C@H](Cc1c[nH]cn1)NC(=O)c1ccc[nH]1
